Measurements published in publication PMC12073402, “A Selective MAP3K1 Inhibitor Facilitates Discovery of NPM1 as a Member of the Network” (Molecules, 2025).
Like-named read-outs stand apart in the source and are kept apart here.

What was measured:
[1] = tested on: NPM1 T199 phosphorylation; test: Western blot of NPM1 T199 phosphorylation in PANC-1 cells; assay type: cell-based; conditions: 2 h
Text: We further investigated changes in NPM1 phosphorylation in our dataset. Of the NPM1 phosphorylation sites quantified, four sites had significant dose-dependent decreases upon 51-106 treatment: S137, T199, S222, and S227. Only one of these phosphorylation sites, T199, has a commercially available antibody. Importantly, T199 phosphorylation plays an essential role in NPM1 function, as it is required for localization of NPM1 to sites of DNA double-stranded breaks, where it colocalizes with other DNA repair proteins such as γH2AX and RAD51 [38].
Cells were washed with cold 1× PBS and lysed in Radioimmunoprecipitation assay (RIPA) buffer (Cat# 89901; Thermo Fisher Scientific), sodium orthovanadate (Na3VO4) (Cat# 567540-5GM; Sigma-Aldrich; St. Louis, MO, USA), sodium fluoride (NaF) (Cat# 201154-5G, >99% purity; Sigma-Aldrich), β-glycerophosphate (Cat# G9422-10G; Sigma-Aldrich), and 1 mM phenylmethylsulfonyl fluoride (Cat# 10837091001; Sigma Aldrich). The samples were incubated on ice for 30 min, vortexed at 10 min intervals, and centrifuged at 14,000× g for 10 min at 4 °C. The supernatant was collected, and protein was quantified using the BCA Protein Assay kit (Cat# 23225; Thermo Fisher Scientific). […]

[2] = Metabolic stability in human liver microsomes (LC-MS/MS); assay type: in vitro ADME; conditions: Species Human
Text: An approach to address this issue of bioavailability is to improve metabolic stability. The para-position of the phenyl ring in acetanilide moieties is susceptible to oxidation. […] To test this, we altered the substitution pattern on the phenyl ring by moving the F atom from the ortho in 84 to the para position (Figure 1A). The regioisomer 51-106, resulting from the above change, was synthesized by coupling 3-(1-methyl-1H-pyrazol-4-yl)quinoxalin-6-amine (1) with freshly prepared 1-fluoro-4-isocyanato-2-(trifluoromethyl)benzene in dichloromethane (Scheme 1). To determine the metabolic stability of 51-106, we incubated 51-106 and analog 84 with human (pooled male and female) liver microsomes and monitored their stability using liquid chromatography–tandem mass spectrometry.
The in vitro metabolic stability of 51-106 was determined using human liver […] (XenoTech, LLC; Kansas City, KS, USA), following previously reported methods. […] Sample analysis was performed by liquid chromatography–tandem mass spectrometry (SCIEX QTRAP 4000 LC-MS/MS System, SCIEX, Framingham, MA, USA).

[3] = parameters: method as in PMID 34098465; conditions: cited from earlier work
[4] = tested on: pancreatic cancer mouse model; parameters: method as in PMID 34098465; conditions: by itself and in combination with gemcitabine; cited from earlier work
[5] = tested on: TNFα-induced IKKβ-mediated NFκB activation; parameters: method as in PMID 34098465; conditions: analog 84 over the earlier IKKβ inhibitor; cited from earlier work

T1/2 (half-life) in human liver microsomes [2]	Hepatic Extraction Ratio (E) ([2]; human liver microsomes)	half-life ([2]; both sexes, human, liver microsomes, read-out: T1/2 (half-life) in human liver microsomes (converted)) [h]	Compound	NPM1 T199 phosphorylation (Western blot) [1]	AUC0-∞ ([3]; 20 mg/kg, Oral) [ng·h/mL]	AUClast ([3]; 20 mg/kg, Oral) [ng·h/mL]	Cmax ([3]; 20 mg/kg, Oral) [ng/mL]	MRT 0-∞ ([3]; 20 mg/kg, Oral) [h]	T1/2 ([3]; 20 mg/kg, Oral) [h]	Tmax ([3]; 20 mg/kg, Oral) [h]	Bioavailability (%F) ([3]; 20 mg/kg, Oral, listed as 84) [%]	Bioavailability (%F) ([3]; 20 mg/kg, Oral, listed as analog 84) [%]	improved bioavailability ([3]; analog 84 over the earlier IKKβ inhibitor)	tumor growth [4]	improved potency [5]
			CN[C@@H]1C[C@H]2O[C@@](C)([C@@H]1OC)n1c3ccccc3c3c4c(c5c6ccccc6n2c5c31)C(=O)NC4 [Staurosporine, reference compound]	Decreased phosphorylation in NPM1 T199											
~ 13 h	0.09	13.6	Cn1cc(-c2cnc3ccc(NC(=O)Nc4cccc(C(F)(F)F)c4F)cc3n2)cn1 [Analog 84]		8008 ± 3696	7986 ± 3675	700 ± 320	6.3 ± 0.5	2.5 ± 0.3	6.0	17.6	~17	~ 5.7 fold	inhibited tumor growth	~ 4 fold
